Test results from patent publication US20250230193A1, “CYCLIC COMPOUND HAVING SELECTIVE KRAS INHIBITORY EFFECT ON HRAS AND NRAS” (CHUGAI SEIYAKU KABUSHIKI KAISHA, priority 2022, published 2025).

Tests used:
[1] = molecular target: GDP-bound NRAS wild-type protein (Homo sapiens, UniProt P01111); test: Binding to NRAS by surface plasmon resonance (SPR), Single Cycle Kinetics; conditions: KD ratio, GDP-bound NRAS wild-type vs GDP-bound KRAS wild-type, SPR
[2] = molecular target: GDP-bound HRAS wild-type protein (Homo sapiens, UniProt P01112); test: Binding to HRAS by surface plasmon resonance (SPR), Single Cycle Kinetics; conditions: KD ratio, GDP-bound HRAS wild-type vs GDP-bound KRAS wild-type, SPR
Sequence of GDP-bound HRAS wild-type protein (P01112 whole entry): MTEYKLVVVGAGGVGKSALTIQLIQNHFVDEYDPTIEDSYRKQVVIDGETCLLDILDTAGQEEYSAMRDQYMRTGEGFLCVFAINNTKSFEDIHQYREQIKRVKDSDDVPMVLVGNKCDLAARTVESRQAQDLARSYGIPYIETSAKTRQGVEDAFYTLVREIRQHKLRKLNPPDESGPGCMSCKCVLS

Sequence of GDP-bound NRAS wild-type protein (P01111 whole entry): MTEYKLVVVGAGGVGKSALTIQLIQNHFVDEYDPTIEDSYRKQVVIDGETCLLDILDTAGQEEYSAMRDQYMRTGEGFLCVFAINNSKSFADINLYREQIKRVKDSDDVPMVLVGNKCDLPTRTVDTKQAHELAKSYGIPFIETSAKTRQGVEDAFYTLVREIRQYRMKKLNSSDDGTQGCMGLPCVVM

Row | SMILES | NRAS/KRAS (ratio of KD value with respect to NRAS to KD value with respect to KRAS) [1] | HRAS/KRAS (ratio of KD value with respect to HRAS to KD value with respect to KRAS) [2]
1 | C=CCCC[C@H]1C(=O)N[C@@H]([C@@H](C)CC)C(=O)N(C)CC(=O)N(C)[C@H]2CCCCCN(C2=O)[C@@H](Cc2ccc(C(F)(F)F)cc2)C(=O)N(C)CC(=O)N[C@@H](CCc2cc(F)c(C(F)(F)F)c(F)c2)C(=O)N2C[C@H](OCC)C[C@H]2C(=O)N[C@](C)(CC=C)C(=O)N(C)[C@@H](C2CCCC2)C(=O)N(C)[C@H](C(=O)N2CCOCC2)CC(=O)N1C [PP0880] | B (a compound having 3 or more and less than 10 is denoted as B) | B (a compound having 3 or more and less than 10 is denoted as B)
2 | CCO[C@@H]1C[C@H]2C(=O)NC3(CCC3)C(=O)N(C)[C@@H](C3CCCC3)C(=O)N(C)[C@H](C(=O)N(C)C)CC(=O)N(C)[C@@H](CC)C(=O)N[C@@H]([C@@H](C)CC)C(=O)N(C)CC(=O)N(C)[C@H]3CCCCN(C3=O)[C@@H](Cc3ccc(C(F)(F)F)cc3)C(=O)N(C)CC(=O)N[C@@H](CCc3ccc(C(F)(F)F)c(C)c3)C(=O)N2C1 [PP0882] | C (A compound having a KD ratio of 0.1 or more and less than 3 is denoted as C) | B (a compound having 3 or more and less than 10 is denoted as B)
3 | CCO[C@@H]1C[C@H]2C(=O)NC3(CCC3)C(=O)N(C)[C@@H](C3CCCC3)C(=O)N(C)[C@H](C(=O)N(C)C)CC(=O)N(C)[C@@H](CC)C(=O)N[C@@H]([C@@H](C)CC)C(=O)N(C)CC(=O)N(C)[C@H]3CCCCN(C3=O)[C@@H](Cc3ccc(C(F)(F)F)cc3)C(=O)N(C)CC(=O)N[C@@H](CCc3ccc(C(F)(F)F)c(OC)c3)C(=O)N2C1 [PP0884] | C (A compound having a KD ratio of 0.1 or more and less than 3 is denoted as C) | C (A compound having a KD ratio of 0.1 or more and less than 3 is denoted as C)
4 | CCO[C@@H]1C[C@H]2C(=O)NC3(CCC3)C(=O)N(C)[C@@H](C3CCCC3)C(=O)N(C)[C@H](C(=O)N(C)C)CC(=O)N(C)[C@@H](CC)C(=O)N[C@@H]([C@@H](C)CC)C(=O)N(C)CC(=O)N(C)[C@H]3CCCCN(C3=O)[C@@H](Cc3ccc(C(F)(F)F)cc3)C(=O)N(C)CC(=O)N[C@@H](CCc3ccc(C(F)(F)F)cc3F)C(=O)N2C1 [PP0885] | C (A compound having a KD ratio of 0.1 or more and less than 3 is denoted as C) | B (a compound having 3 or more and less than 10 is denoted as B)
5 | CCO[C@@H]1C[C@H]2C(=O)NC3(CCC3)C(=O)N(C)[C@@H](C3CCCC3)C(=O)N(C)[C@H](C(=O)N(C)C)CC(=O)N(C)[C@@H](CC)C(=O)N[C@@H]([C@@H](C)CC)C(=O)N(C)CC(=O)N(C)[C@H]3CCCCN(C3=O)[C@@H](Cc3ccc(C(F)(F)F)cc3)C(=O)N(C)CC(=O)N[C@@H](CCc3c(F)c(F)c(C(F)(F)F)c(F)c3F)C(=O)N2C1 [PP0886] | C (A compound having a KD ratio of 0.1 or more and less than 3 is denoted as C) | B (a compound having 3 or more and less than 10 is denoted as B)
6 | CCO[C@@H]1C[C@H]2C(=O)NC3(CCC3)C(=O)N(C)[C@@H](C3CCCC3)C(=O)N(C)[C@H](C(=O)N(C)C)CC(=O)N(C)[C@@H](CC)C(=O)N[C@@H]([C@@H](C)CC)C(=O)N(C)CC(=O)N(C)[C@H]3CCCCN(C3=O)[C@@H](Cc3ccc(C(F)(F)F)cc3)C(=O)N(C)CC(=O)N[C@@H](CCc3ccc4sccc4c3)C(=O)N2C1 [PP0887] | C (A compound having a KD ratio of 0.1 or more and less than 3 is denoted as C) | C (A compound having a KD ratio of 0.1 or more and less than 3 is denoted as C)
7 | CCO[C@@H]1C[C@H]2C(=O)NC3(CCC3)C(=O)N(C)[C@@H](C3CCCC3)C(=O)N(C)[C@H](C(=O)N(C)C)CC(=O)N(C)[C@@H](CC)C(=O)N[C@@H]([C@@H](C)CC)C(=O)N(C)CC(=O)N(C)[C@H]3CCCCN(C3=O)[C@@H](Cc3ccc(C(F)(F)F)cc3)C(=O)N(C)CC(=O)N[C@@H](CCc3ccc4ccsc4c3)C(=O)N2C1 [PP0888] | C (A compound having a KD ratio of 0.1 or more and less than 3 is denoted as C) | B (a compound having 3 or more and less than 10 is denoted as B)
8 | CCO[C@@H]1C[C@H]2C(=O)NC3(CCC3)C(=O)N(C)[C@@H](C3CCCC3)C(=O)N(C)[C@H](C(=O)N(C)C)CC(=O)N(C)[C@@H](CC)C(=O)N[C@@H]([C@@H](C)CC)C(=O)N(C)CC(=O)N(C)[C@H]3CCCCCN(C3=O)[C@@H](Cc3ccc(C(F)(F)F)cc3)C(=O)N(C)CC(=O)N[C@@H](CCc3c(F)c(F)c(C(F)(F)F)c(F)c3F)C(=O)N2C1 [PP0891] | B (a compound having 3 or more and less than 10 is denoted as B) | B (a compound having 3 or more and less than 10 is denoted as B)
9 | CCO[C@@H]1C[C@H]2C(=O)NC3(CCC3)C(=O)N(C)[C@@H](C3CCCC3)C(=O)N(C)[C@H](C(=O)N(C)C)CC(=O)N(C)[C@@H](CC)C(=O)N[C@@H]([C@@H](C)CC)C(=O)N(C)CC(=O)N(C)[C@H]3CCCCCN(C3=O)[C@@H](Cc3ccc(C(F)(F)F)cc3)C(=O)N(C)CC(=O)N[C@@H](CCc3ccc4sccc4c3)C(=O)N2C1 [PP0892] | B (a compound having 3 or more and less than 10 is denoted as B) | B (a compound having 3 or more and less than 10 is denoted as B)
10 | CCCN1C(=O)CN(C)C(=O)CN(C)C(=O)[C@H]([C@@H](C)CC)NC(=O)[C@@H]2CCCCCOc3ccc(cc3)C[C@H]1C(=O)N(C)CC(=O)N[C@@H](CCc1cc(F)c(C(F)(F)F)c(F)c1)C(=O)N1C[C@H](OCC)C[C@H]1C(=O)NC1(CCCC1)C(=O)N(C)[C@@H](C1CCCC1)C(=O)N(C)[C@H](C(=O)N(C)C)CC(=O)N2C [PP0895] | C (A compound having a KD ratio of 0.1 or more and less than 3 is denoted as C) | C (A compound having a KD ratio of 0.1 or more and less than 3 is denoted as C)
11 | CCCN1C(=O)CN(C)C(=O)CN(C)C(=O)[C@H]([C@@H](C)CC)NC(=O)[C@@H]2CCCCCCOc3ccc(cc3)C[C@H]1C(=O)N(C)CC(=O)N[C@@H](CCc1cc(F)c(C(F)(F)F)c(F)c1)C(=O)N1C[C@H](OCC)C[C@H]1C(=O)NC1(CCCC1)C(=O)N(C)[C@@H](C1CCCC1)C(=O)N(C)[C@H](C(=O)N(C)C)CC(=O)N2C [PP0896] | C (A compound having a KD ratio of 0.1 or more and less than 3 is denoted as C) | C (A compound having a KD ratio of 0.1 or more and less than 3 is denoted as C)
12 | CCO[C@@H]1C[C@H]2C(=O)NC3(CCC3)C(=O)N(C)[C@@H](C3CCCC3)C(=O)N(C)[C@H](C(=O)N(C)C)CC(=O)N(C)[C@@H](CC)C(=O)N[C@@H]([C@@H](C)CC)C(=O)N(C)CC(=O)N(C)[C@H]3CCCCCN(C3=O)[C@@H](Cc3ccc(F)c(F)c3)C(=O)N(C)CC(=O)N[C@@H](CCc3cc(F)c(C(F)(F)F)c(F)c3)C(=O)N2C1 [PP0907] | B (a compound having 3 or more and less than 10 is denoted as B) | B (a compound having 3 or more and less than 10 is denoted as B)
13 | CCO[C@@H]1C[C@H]2C(=O)NC3(CCC3)C(=O)N(C)[C@@H](C3CCCC3)C(=O)N(C)[C@H](C(=O)N(C)C)CC(=O)N(C)[C@@H](CC)C(=O)N[C@@H]([C@@H](C)CC)C(=O)N(C)CC(=O)N(C)[C@H]3CCCCCN(C3=O)[C@@H](Cc3ccc(F)cc3Cl)C(=O)N(C)CC(=O)N[C@@H](CCc3cc(F)c(C(F)(F)F)c(F)c3)C(=O)N2C1 [PP0908] | B (a compound having 3 or more and less than 10 is denoted as B) | B (a compound having 3 or more and less than 10 is denoted as B)
14 | CCO[C@@H]1C[C@H]2C(=O)NC3(CCC3)C(=O)N(C)[C@@H](C3CCCC3)C(=O)N(C)[C@H](C(=O)N(C)C)CC(=O)N(C)[C@@H](CC)C(=O)N[C@@H]([C@@H](C)CC)C(=O)N(C)CC(=O)N(C)[C@H]3CCCCCN(C3=O)[C@@H](Cc3ccc(F)c(Cl)c3)C(=O)N(C)CC(=O)N[C@@H](CCc3cc(F)c(C(F)(F)F)c(F)c3)C(=O)N2C1 [PP0909] | B (a compound having 3 or more and less than 10 is denoted as B) | B (a compound having 3 or more and less than 10 is denoted as B)
15 | CCO[C@@H]1C[C@H]2C(=O)NC3(CCC3)C(=O)N(C)[C@@H](C3CCCC3)C(=O)N(C)[C@H](C(=O)N(C)C)CC(=O)N(C)[C@@H](CC)C(=O)N[C@@H]([C@@H](C)CC)C(=O)N(C)CC(=O)N(C)[C@H]3CCCCCN(C3=O)[C@@H](Cc3ccc4ccsc4c3)C(=O)N(C)CC(=O)N[C@@H](CCc3cc(F)c(C(F)(F)F)c(F)c3)C(=O)N2C1 [PP0910] | B (a compound having 3 or more and less than 10 is denoted as B) | B (a compound having 3 or more and less than 10 is denoted as B)
